# Data as given in patent publication US9987243B2, “Use of trans-palmitoleate in identifying and treating metabolic disease” (Trustees of Tufts College, priority 2010, dated 2018).
# Tested on: 2,985 participants free of prevalent diabetes at baseline
# Assay: Cardiovascular Health Study: plasma phospholipid fatty acids and incident diabetes mellitus (Cox proportional-hazards)
# Assay type: in vivo, human
# Settings: per each higher SD of the plasma phospholipid fatty acid; multivariable-adjusted (covariates as in Table 4)
# Method: Plasma phospholipid fatty acids, anthropometry, blood lipids, inflammatory markers, and glucose-insulin levels were measured at baseline using standardized methods. Independent determinants of trans-palmitoleate and relationships of trans-palmitoleate with metabolic risk factors were investigated using multivariable-adjusted linear regression.
# Multivariable model adjusted for age (years), gender (male/female), race (white/nonwhite), education (<high school, high school, some college, college graduate), enrollment site (four sites), smoking (never, former, current), body mass index (kg/m^2), waist circumference (cm), coronary heart disease (yes/no), physical activity (kcal/wk), alcohol use (six categories), and consumption of carbohydrate (% energy), protein (% energy), red meat (servings/week), whole-fat dairy foods (6 categories), low-fat dairy foods (five categories), and total energy (kcal/d).
# Participants were followed by means of annual examinations for 10 years with interim and subsequent 6-month telephone contacts. Ives et al., 5 Ann. Epidemiol. […] At each visit, detailed medication information was obtained using medication inventories. At baseline, study interviewers visited participants in their homes and asked to see all prescription medications they had taken in the previous 2 weeks. At follow-up exams, participants brought to clinic all prescription medications taken in the previous 2 weeks. Drug names, doses, and frequencies were coded according to prescription medication Medispan files.
# Relationships between phospholipid fatty acids were evaluated using Spearman correlation. Trans-palmitoleate levels were evaluated in sex-specific quintiles as indicator variables and continuously per SD difference. Independent demographic and lifestyle determinants of trans-palmitoleate were evaluated using multivariable-adjusted linear regression with trans-palmitoleate as the dependent variable. Multivariable-adjusted relationships of trans-palmitoleate with metabolic risk factors (transformed for normality as appropriate) were evaluated using linear regression with trans-palmitoleate as the independent variable. Quintiles were evaluated as ordinal variables to assess trend, to assess effect modification using the Wald test for a multiplicative interaction term, and to assess differences in baseline characteristics by means of linear or logistic regression. […] To minimize potential confounding, covariates were selected based on biologic interest, being well-established risk factors for metabolic risk, or associations with exposures/outcomes in the present cohort. […] Analyses were performed using Stata10.1 (College Station, Tex.), two-tailed alpha=0.05.
row,SMILES,RR of diabetes per SD
1,"CCCCCCCCCCCCCCC(=O)O [15:0, pentadecanoic acid, reference compound]",1.01
2,"CCCCCCCCCCCCCCCCC(=O)O [17:0, reference compound]",0.98
